This is an account of results in BindingDB's records for doi:10.1016/j.chembiol.2011.02.011 (University of Oklahoma, 2011).

In the test the target is T1, Multidrug efflux pump subunit AcrB (Escherichia coli (strain B / BL21-DE3), UniProt P31224).
T1 sequence (P31224 whole entry): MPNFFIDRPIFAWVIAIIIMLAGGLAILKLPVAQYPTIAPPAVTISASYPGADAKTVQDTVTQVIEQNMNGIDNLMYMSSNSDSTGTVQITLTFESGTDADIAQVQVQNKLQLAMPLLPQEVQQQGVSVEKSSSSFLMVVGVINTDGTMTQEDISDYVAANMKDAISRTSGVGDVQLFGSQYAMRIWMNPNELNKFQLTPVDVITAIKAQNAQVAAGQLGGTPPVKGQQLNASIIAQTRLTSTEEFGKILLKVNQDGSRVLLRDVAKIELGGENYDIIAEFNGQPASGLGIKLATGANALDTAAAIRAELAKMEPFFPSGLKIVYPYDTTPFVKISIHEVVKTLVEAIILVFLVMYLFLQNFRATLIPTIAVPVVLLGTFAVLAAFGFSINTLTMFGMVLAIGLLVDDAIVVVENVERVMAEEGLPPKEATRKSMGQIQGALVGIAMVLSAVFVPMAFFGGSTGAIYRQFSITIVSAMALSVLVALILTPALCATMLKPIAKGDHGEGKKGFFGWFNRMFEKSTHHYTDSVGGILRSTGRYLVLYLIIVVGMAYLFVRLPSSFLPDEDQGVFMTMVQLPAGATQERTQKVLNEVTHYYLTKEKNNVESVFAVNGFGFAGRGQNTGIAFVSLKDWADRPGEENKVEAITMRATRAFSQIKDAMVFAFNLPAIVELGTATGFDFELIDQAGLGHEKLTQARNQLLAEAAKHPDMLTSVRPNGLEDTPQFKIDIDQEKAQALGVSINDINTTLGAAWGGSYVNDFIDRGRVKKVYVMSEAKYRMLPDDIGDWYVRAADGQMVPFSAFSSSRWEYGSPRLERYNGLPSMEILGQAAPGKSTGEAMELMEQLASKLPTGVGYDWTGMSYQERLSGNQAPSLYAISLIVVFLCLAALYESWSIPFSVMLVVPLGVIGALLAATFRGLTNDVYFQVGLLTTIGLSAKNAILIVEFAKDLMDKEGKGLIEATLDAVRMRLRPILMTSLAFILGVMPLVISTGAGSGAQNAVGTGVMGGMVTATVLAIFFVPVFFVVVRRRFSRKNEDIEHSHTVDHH
The experiment in a line: Binding Assay. From the text:
Binding of inhibitors and substrates to immobilized AcrB.

Where a SMILES comes first, the peptide text is derived from it. [ ]: non-standard residue; d: D form. The star is where a group is joined. ξ: configuration not given here. ξR = N=C(N)NCCCC(N)C(=O)O; βNA = c1ccc2cc(N*)ccc2c1

As for `CO[C@@H]1[C@@H](OC(N)=O)[C@@H](O)[C@H](Oc2ccc3c(O)c(NC(=O)c4ccc(O)c(CC=C(C)C)c4)c(=O)oc3c2C)OC1(C)C` [Coumarin-Based, DNA Gyrase Inhibitor], binding (pH 7.5) was put at a Kd of 530 µM.
Take `NC(N)=NCCCC(NC(=O)[C@@H](N)Cc1ccccc1)C(=O)Nc1ccc2ccccc2c1` (stereo partly drawn) [MC-207,110] (H-Phe-[ξR]-βNA): the Kd (in general, a measure of binding affinity in units of concentration) (pH 6) is 110 µM and binding (pH 7.5) was put at a Kd of 590 µM.
